# Results from patent US12168020B2, “Method for ameliorating, preventing or treating muscular atrophy or sarcopenia by administering composition comprising 2′-fucosyllactose as active ingredient” (ADVANCED PROTEIN TECHNOLOGIES CORP., priority 2021, dated 2024).
# Experiments:
# [1] = tested on: C2C12, a mouse muscle (myoblast) cell line; test: MTT assay, cytotoxicity of 2′-FL in C2C12; assay type: cell-based; settings: C2C12, 2′-FL 100, 200, 400 μM, 24 hours, vs control group
# Procedure: C2C12, a mouse muscle (myoblast) cell line, was cultured at 37° C. in the presence of 5% CO2 using a medium containing 90% DMEM, 10% FBS, and 10 unit/ml penicillin-streptomycin. In order to confirm the cytotoxicity of 2′-FL, the C2C12 cell line was seeded in each well of a 96-well plate at a concentration of 5×10^4 cells/well, cultured for 24 hours, and then treated with 2′-FL at various concentrations (100, 200, 400 μM) for 24 hours. Then, the medium was removed and a growth medium and 0.5 mg/ml of a diluted MTT solution were aliquoted in an amount of […] and incubated in a CO2 incubator. After 2 hours, the MTT reagent was removed, formazin was dissolved in DMSO (dimethyl sulfoxide), and absorbance was measured at 540 nm.
# [2] = tested on: C2C12 myotubes, MHC; test: MHC expression analysis by immunocytochemical staining (myocyte differentiation); assay type: cell-based, mouse; settings: C2C12, 2′-FL 100 and 200 μM, 24 hours, vs control group
# Procedure: In order to differentiate mouse myoblasts into myotubes, the mouse myoblasts were seeded at a concentration of 4×10^5 cells/well in each well of a 6-well plate, cultured for 24 hours until confluence reached 100% and then 2% horse serum was added thereto. Then, the mouse myoblasts were differentiated for 6 days while exchanging the DMEM containing 2% horse serum with fresh DMEM every 2 days. Immunocytochemical staining was performed to determine the effect of treatment with 2′-FL on myocyte differentiation. Specifically, C2C12 was treated with 2′-FL at different concentrations (100 and 200 μM) for 24 hours, and then fixed with a 4% paraformaldehyde solution for 10 minutes. The fixed cells were washed with PBS containing 0.1% Triton X-100 and then reacted in 5% BSA solution for 1 hour. The cells were washed 3 times with 1×PBS again and then were allowed to react with an MHC antibody (Cell signaling) at room temperature overnight. After the reaction was completed, the cells were washed 3 times with PBS and reacted with Alexa Fluor 488 goat anti-rabbit IgG at room temperature for 1 hour, and then nuclei thereof were stained with a horchest solution and observed under a fluorescence microscope. At this time, the AMPK agonist A-769662 (1 μM) was used as a positive control.
# [3] = tested on: differentiated C2C12, mitochondria; test: Mitochondrial function: mtDNA expression and mitochondrial density (MitoTracker); assay type: cell-based, mouse; settings: differentiated C2C12, 2′-FL 100 and 200 μM, 24 hours, vs control group
# Procedure: Mitochondria have mitochondrial DNA (mtDNA) that is isolated from their own nuclear DNA. […] Such damage to mtDNA causes a decrease in mitochondrial function, leading to a decrease in synthesis of ATP, which is an energy molecule required for cellular a decrease in the ability to regulate activity, and homeostasis in vivo, which eventually causes the onset of various diseases. Accordingly, mtDNA expression and mitochondrial density upon treatment with 2′-FL were measured. […] C2C12 was treated with 2′-FL at different concentrations (100 and 200 μM) for 24 hours, was washed with PBS, added with a medium containing 200 nM of a MitoTracker green probe and cultured for 30 minutes. Then, the portion bound to the MitoTracker green probe was quantified with SpectraMax that absorbs a wavelength of 490 nm and emits a wavelength of 516 nm to measure the density of mitochondria. At this time, the AMPK agonist A-769662 (1 μM) was used as a positive control.
# [4] = tested on: PGC-1α mRNA; test: qPCR of mitochondrial biosynthesis gene PGC-1α; assay type: cell-based, mouse; settings: C2C12, 2′-FL at a high concentration, vs control group
# Source text: (§1) Mitochondria are organelles that have a main function of generating ATP, which is a form of intracellular energy, and perform various intracellular functions such as metabolism, signal transduction, apoptosis, and differentiation. Metabolic adaptation in skeletal muscle is achieved by the regulation of various genes, and PGC-1α (peroxisome proliferator-activated receptor-γ coactivator-1α) transcriptional cofactor is known to perform the most important role therefor. Accordingly, the mRNA expression changes of PGC-1α and the downstream gene thereof, NRF2, were determined upon treatment with 2′-FL.
# (§2) For this purpose, CDNA was synthesized from RNA extracted from C2C12 cells using ReverTra Ace qPCR RT Kit (TOYOBO). In order to increase the efficiency of the reaction, the RNA was pre-heated at 65° C. for 5 minutes and then immediately stored on ice. Then, a total of 8 μl of reagent was prepared from 2 μl of 4×DN master mix containing a gDNA remover, 0.5 μg of mRNA, and nuclease-free water, and then was amplified at 37° C. for 5 minutes.
# (§3) The reacted reagent was added with a 5×RT master mix, and amplified at 37° C. for 15 minutes, at 50° C. for 5 minutes, and at 98° C. for 5 minutes to synthesize cDNA. Then, the synthesized cDNA was subjected to qPCR using Thunderbird TMSYBR qPCR mix reagent (TOYOBO). The gene expression level was analyzed with the iQ5 Cycler System (Bio-Rad). […]
# [5] = tested on: NRF2 mRNA; test: qPCR of mitochondrial biosynthesis gene NRF2; assay type: cell-based, mouse; settings: C2C12, 2′-FL at a high concentration, vs control group
# Source text: as §1, §2, §3
# [6] = tested on: differentiated C2C12 treated with dexamethasone; test: Protection against dexamethasone-induced growth inhibition (trypan blue cell count); assay type: cell-based, mouse; settings: 2′-FL high concentration (200 μM) 1 hour before dexamethasone 400 μM for 24 hours, vs dexamethasone group (Veh)
# Procedure: Dexamethasone, a synthetic glucocorticoid, is known to decrease the rate of protein synthesis and increase the rate of protein degradation in muscles in vivo or in cultured cells. Accordingly, 1 hour after treatment of C2C12, which had been differentiated, with 2′-FL, C2C12 was treated with dexamethasone at a concentration of 400 μM for 24 hours to determine the muscular atrophy prevention effect of 2′-FL in a cell model. In order to evaluate the prophylactic effect of growth inhibition caused by treatment with dexamethasone, C2C12 was treated with 2′-FL and dexamethasone in the same manner as above, the cells were removed with trypsin, and the number of the cells was counted using trypan blue staining.
# [7] = tested on: C2C12 myotubes treated with dexamethasone; test: Protection against dexamethasone-induced differentiation inhibition (myotube length and diameter); assay type: cell-based, mouse; settings: 2′-FL high concentration (200 μM), dexamethasone 400 μM 24 hours, vs dexamethasone group (Veh)
# Procedure: Dexamethasone, a synthetic glucocorticoid, is known to decrease the rate of protein synthesis and increase the rate of protein degradation in muscles in vivo or in cultured cells. Accordingly, 1 hour after treatment of C2C12, which had been differentiated, with 2′-FL, C2C12 was treated with dexamethasone at a concentration of 400 μM for 24 hours to determine the muscular atrophy prevention effect of 2′-FL in a cell model. Meanwhile, in order to evaluate the prophylactic effect of the differentiation inhibition caused by treatment with dexamethasone, the length and diameter of myotubes were measured after treatment with dexamethasone.
# [8] = tested on: differentiated C2C12 treated with dexamethasone, mitochondria; test: Protection against dexamethasone-induced mitochondrial function inhibition; assay type: cell-based, mouse; settings: 2′-FL 100 or 200 μM, dexamethasone 400 μM 24 hours, vs dexamethasone group
# Procedure: Dexamethasone, a synthetic glucocorticoid, is known to decrease the rate of protein synthesis and increase the rate of protein degradation in muscles in vivo or in cultured cells. Accordingly, 1 hour after treatment of C2C12, which had been differentiated, with 2′-FL, C2C12 was treated with dexamethasone at a concentration of 400 μM for 24 hours to determine the muscular atrophy prevention effect of 2′-FL in a cell model. After treatment with dexamethasone, mtDNA expression and mitochondrial density were measured. […] In FIG. 6, 2FLL represents a group treated with 2′-FL at 100 μM, and 2FLH represent a group treated with 2′-FL at 200 μM.
# [9] = tested on: atrogin-1 gene; test: qPCR of muscular atrophy gene atrogin-1 after dexamethasone; assay type: cell-based, mouse; settings: 2′-FL 100 or 200 μM, dexamethasone 400 μM 24 hours, vs dexamethasone group (Veh)
# [10] = tested on: MuRF1 gene; test: qPCR of muscular atrophy gene MuRF1 after dexamethasone; assay type: cell-based, mouse; settings: 2′-FL 100 or 200 μM, dexamethasone 400 μM 24 hours, vs dexamethasone group (Veh)
# [11] = tested on: C57BL/6 mice; test: Dexamethasone-induced muscular atrophy mouse model: body weight and plasma liver function test; assay type: in vivo; settings: dexamethasone 10 mg/kg i.p., vs Veh
# Procedure: (§4) In order to determine whether or not 2′-FL has a prophylactic effect against muscular atrophy in an animal model, 2′-FL was orally administered at a concentration of 200 or 400 mg/kg to 7-week-old male C57BL/6 mice for 7 days, followed by intraperitoneal injection of dexamethasone known as a drug inducing muscular atrophy at a concentration of 10 mg/kg, and at the same time, oral administration of 2′-FL for 2 weeks. At this time, the experiment was conducted on mouse experimental groups, namely, a Nor group that received intraperitoneal injection of saline and distilled water, a that received intraperitoneal injection of Veh group dexamethasone and was orally administered distilled water, and a 2FLL group and a 2FLH group that received intraperitoneal injection of dexamethasone and was orally administered 2′-FL at 200 mg/kg and 400 mg/kg, respectively.
# [12] = tested on: C57BL/6 mice, muscle tissue; test: Dexamethasone-induced muscular atrophy mouse model: H&E muscle histology and muscle tissue weight; assay type: in vivo; settings: 2FLH (2′-FL 400 mg/kg oral), dexamethasone 10 mg/kg i.p., vs Veh
# Procedure: as §4, with “respectively. The mouse muscle tissue was stained using the H&E method and then histological morphology was observed.” for “respectively.”
# [13] = tested on: C57BL/6 mice; test: Dexamethasone-induced muscular atrophy mouse model: grip strength test; assay type: in vivo; settings: 2′-FL 200 or 400 mg/kg oral, dexamethasone 10 mg/kg i.p., day before end of experiment, vs Veh
# Procedure: as §4, with “respectively. All experimental animals were subjected to a grip strength test using a grip strength meter (Jeongdo Bio & Plant Co., Ltd.) the day before the end of the experiment.” for “respectively.”
# [14] = tested on: atrogin-1 protein; test: Dexamethasone-induced muscular atrophy mouse model: atrogin-1 immunoblotting of muscle tissue; assay type: in vivo; settings: 2′-FL at a high concentration (400 mg/kg oral), dexamethasone 10 mg/kg i.p., vs Veh
# Procedure: In order to determine whether or not 2′-FL has a prophylactic effect against muscular atrophy in an animal model, 2′-FL was orally administered at a concentration of 200 or 400 mg/kg to 7-week-old male C57BL/6 mice for 7 days, followed by intraperitoneal injection of dexamethasone known as a drug inducing muscular atrophy at a concentration of 10 mg/kg, and at the same time, oral administration of 2′-FL for 2 weeks. At this time, the experiment was conducted on mouse experimental groups, namely, a Nor group that received intraperitoneal injection of saline and distilled water, a that received intraperitoneal injection of Veh group dexamethasone and was orally administered distilled water, and a 2FLL group and a 2FLH group that received intraperitoneal injection of dexamethasone and was orally administered 2′-FL at 200 mg/kg and 400 mg/kg, respectively. Proteins were extracted by adding a Halt™ protease inhibitor to lysis buffer (10 mM Tris-HCl, pH 7.5, 1% NP-40, 0.1% sodium deoxycholate, 0.1% SDS, 150 mM NaCl, and 1 mM EDTA) in order to confirm protein expression using mouse muscle tissue and then immunoblotting was performed. As primary antibodies, anti-α-tubulin (1:1000) and anti-atrogin-1 (1:1000) were used. The resulting image of immunoblotting was analyzed using a ChemiDoc™ touch imaging system (Bio-Rad) and Image Lab 5.2 software (Bio-Rad).
substance,measurement,setting,value
2′-fucosyllactose [2′-FL],cell viability,[1],no difference in cell viability
same,MHC expression,[2],increased
same,length and thickness of myotubes,[2],increased
same,mitochondrial density measured using the MitoTracker,[3],increased in a concentration-dependent manner
same,mtDNA expression,[3],significantly increased in a concentration-dependent manner
same,expression of PGC-1α mRNA,[4],significantly increased
same,expression of NRF2 mRNA,[5],significantly increased
same,number of cells,[6],significantly increased
same,diameter of myotubes,[7],significantly increased
same,length of myotubes,[7],significantly increased
same,mitochondrial function (mtDNA expression and mitochondrial density),[8],significantly increased
same,atrogin-1 gene expression,[9],significantly decreased
same,MuRF1 gene expression,[10],significantly decreased
same,mouse weight,"[11]; 2FLH (2′-FL 400 mg/kg oral), 3 weeks",increased
same,plasma GOT activity,[11]; 2′-FL 200 or 400 mg/kg oral,lowered
same,plasma GPT activity,[11]; 2′-FL 200 or 400 mg/kg oral,lowered
same,"muscular atrophy morphological characteristics (decreased muscle bundle size, imbalance in nuclear location), H&E",[12],ameliorated
same,weight of extensor digitorum longus,[12],significantly increased
same,weight of gastrocnemius muscle,[12],significantly increased
same,weight of muscle tissue (unspecified),[12],significantly increased
same,grip strength,[13],significantly increased
same,expression of atrogin-1 protein in muscle tissue,[14],significantly decreased
